Measurements: US20040248904A1, “New piperidinylamino-thieno[2,3-d] pyrimidine compounds” (priority 2003, published 2004)
Read-outs that look alike come from different tables or passages of the source.

Legend:
[1] = Rat pharmacokinetics (% F, T1/2); details: in vivo; for bioavailability: oral, read-out: PK (% F) rat
5-HT2B = 5-HT2B (Homo sapiens, UniProt P41595); experiment: 5-HT2B receptor affinity (K1, Table 1); assay type: binding
Description: (§1) Compounds of the invention were made according to the respective syntheses noted above, and their activity and selectivity was determined. […] The compounds accordingly are expected to be useful as 5-HT2B receptor modulators, e.g., in the treatment of a wide variety of clinical conditions which are characterized by serotonin excess or absence, e.g., serotoninergic hypofunction or hyperfunction. Such conditions include those noted above, and conditions associated with vascular disorders, e.g., angina, migraine, pulmonary hypertension and systemic hypertension.

Rat Fundus = experiment: Functional (Antagonist Rat Fundus); assay type: cell-based
Description: as §1

Chain of 5-HT2B (P41595 whole entry, species assumed): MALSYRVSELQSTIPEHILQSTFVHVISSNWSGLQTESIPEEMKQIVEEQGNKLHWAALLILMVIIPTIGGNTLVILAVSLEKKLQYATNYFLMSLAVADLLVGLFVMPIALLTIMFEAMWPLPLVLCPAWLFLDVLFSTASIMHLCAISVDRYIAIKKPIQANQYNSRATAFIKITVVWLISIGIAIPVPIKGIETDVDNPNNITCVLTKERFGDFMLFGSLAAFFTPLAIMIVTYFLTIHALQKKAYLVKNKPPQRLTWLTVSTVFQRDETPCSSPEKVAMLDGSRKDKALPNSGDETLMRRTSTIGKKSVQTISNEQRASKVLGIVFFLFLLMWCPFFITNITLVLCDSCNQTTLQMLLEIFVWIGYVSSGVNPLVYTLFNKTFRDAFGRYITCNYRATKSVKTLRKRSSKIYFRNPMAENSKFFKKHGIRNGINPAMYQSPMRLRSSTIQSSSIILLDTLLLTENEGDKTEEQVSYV

Ki (5-HT2B) [nM]	SMILES	further results
18	Fc1cc(F)cc(CN2CCC(Nc3ncnc4sccc34)CC2)c1 [Compound 14]	half-life ([1]; iv, read-out: T1/2 (hr) rat iv (converted)): 0.3 h; IC50 (Rat Fundus): 1600 nM
84	CC(C)CC(c1cccc(F)c1)N1CCC(Nc2ncnc3sc4c(c23)CCCC4)CC1 (stereo not drawn) [Compound 20]	
150	CC(C)Cc1cc2c(NCCCNC(C)c3cccc(F)c3)ncnc2s1 (stereo not drawn) [Compound 22]	
72	CC(c1c(F)cc(F)cc1F)N1CCC(Nc2ncnc3sc4c(c23)CCCC4)CC1 (stereo not drawn) [Compound 19]	
950	Fc1cccc(C(N2CCC(Nc3ncnc4sc5c(c34)CCCC5)CC2)C(F)(F)F)c1 (stereo not drawn) [Compound 24]	
20	CC(C)Cc1cc2c(NC3CCN(C(C)c4c(F)cccc4F)CC3)ncnc2s1 (stereo not drawn) [Compound 15]	
44	CC(c1c(F)cccc1F)N1CCC(Nc2ncnc3sc4c(c23)CCCC4)CC1 (stereo not drawn) [Compound 16]	
120	CC(C#N)(c1cccc(F)c1)N1CCC(Nc2ncnc3sc4c(c23)CCCC4)CC1 (stereo not drawn) [Compound 21]	
1200	CC(c1cccc(F)c1)N1CCC(C)(Nc2ncnc3sc4c(c23)CCCC4)CC1 (stereo not drawn) [Compound 25]	
13	c1ccc(CN2CCC(Nc3ncnc4sc5c(c34)CCCC5)CC2)cc1 [Compound 10]	bioavailability [1]: 1.5%; IC50 (Rat Fundus): 110 nM
0.79	Fc1cccc(CN2CCC(Nc3ncnc4sc(Cl)cc34)CC2)c1 [Compound 2]	
52	CC(NCCCNc1ncnc2sc3c(c12)CCCC3)c1cccc(F)c1 (stereo not drawn) [Compound 17]	
0.97	CC(C)Cc1cc2c(NC3CCN(C(C)c4cccc(F)c4)CC3)ncnc2s1 (stereo not drawn) [Compound 3]	bioavailability [1]: 3.9%; half-life ([1]; po, read-out: T1/2 (hr) rat* po (converted)): 0.45 h; IC50 (Rat Fundus): 5300 nM
2.3	Fc1cccc(CN2CCC(Nc3ncnc4sc5c(c34)CCCC5)CC2)c1 [Compound 4]	IC50 (Rat Fundus): 100 nM
4.2	CC(C)Cc1cc2c(NC3CCN(C(C)c4cc(F)cc(F)c4)CC3)ncnc2s1 (stereo not drawn) [Compound 7]	bioavailability [1]: 2.8%; IC50 (Rat Fundus): 5700 nM
14	CC(c1cccc(F)c1)N1CCC(Nc2ncnc3sccc23)CC1 (stereo not drawn) [Compound 11]	
7.8	Cc1sc2ncnc(NC3CCN(CC4CCCCC4)CC3)c2c1C [Compound 9]	
4	CC(c1cccc(F)c1)N1CCC(Nc2ncnc3sc4c(c23)CCCC4)CC1 (stereo not drawn) [Compound 6]	
2.64	CC(c1cc(F)cc(F)c1)N1CCC(Nc2ncnc3sc4c(c23)CCCC4)CC1 (stereo not drawn) [Compound 5]	IC50 (Rat Fundus): 1300 nM
70	CC(C)Cc1cc2c(NC3CCN(C(C)c4c(F)cc(F)cc4F)CC3)ncnc2s1 (stereo not drawn) [Compound 18]	
4.6	Cc1sc2ncnc(NC3CCN(C(C)c4cccc(F)c4)CC3)c2c1C (stereo not drawn) [Compound 8]	
210	Cc1sc2ncnc(NC3CCN(Cc4ccccc4C#N)CC3)c2c1C [Compound 23]	
15	CC(C)(c1cccc(F)c1)N1CCC(Nc2ncnc3sc4c(c23)CCCC4)CC1 [Compound 12]	
1300	CC(C)Cc1cc2c(N3CCC(NCc4cc(F)cc(F)c4)CC3)ncnc2s1 [Compound 26]	
17	Fc1cccc(CNCCCNc2ncnc3sc4c(c23)CCCC4)c1 [Compound 13]	

SMILES	Ki (5-HT2B) [nM]	further results
CC(C)c1cc2c(NC3CCN(Cc4cc(F)cc(F)c4)CC3)ncnc2s1 [Compound 1]	0.57	bioavailability [1]: 9.8%; IC50 (Rat Fundus): 830 nM
